Reference: paper PMC10935503 (Acta Pharmaceutica Sinica. B, 2023)

Key:
Type in all cases: cell-based
HIV-1 F227L + V106A = experiment: microbe, parasite or virus in culture; conditions: for EC50: Human immunodeficiency virus 1, MT4, read-out: EC50 F227L + V106A; for RF F227L + V106A: resistance fold, EC50 (mutant strain)/EC50 (WT strain); for SI F227L + V106A: selectivity index, ratio of CC50/EC50
HIV-1 K103N = experiment: microbe, parasite or virus in culture; conditions: for EC50: Human immunodeficiency virus 1, MT4, read-out: EC50 K103N; for RF K103N: resistance fold, EC50 (mutant strain)/EC50 (WT strain); for SI K103N: selectivity index, ratio of CC50/EC50
HIV-1 Y181C = experiment: microbe, parasite or virus in culture; conditions: for EC50: Human immunodeficiency virus 1, MT4, read-out: EC50 Y181C; for RF Y181C: resistance fold, EC50 (mutant strain)/EC50 (WT strain); for SI Y181C: selectivity index, ratio of CC50/EC50
HIV-1 E138K = experiment: microbe, parasite or virus in culture; conditions: for EC50: Human immunodeficiency virus 1, MT4, read-out: EC50 E138K; for RF E138K: resistance fold, EC50 (mutant strain)/EC50 (WT strain); for SI E138K: selectivity index, ratio of CC50/EC50
[1] = test system: HIV-1 K103N + Y181C (RES056); experiment: microbe, parasite or virus in culture; conditions: for EC50: Human immunodeficiency virus 1, MT4, read-out: EC50 RES056; for RF RES056: resistance fold, EC50 (mutant strain)/EC50 (WT strain); for SI RES056: selectivity index, ratio of CC50/EC50
[2] = Cytotoxicity in mock-infected MT-4 cells, MTT method; conditions: human
HIV-1 WT strain (IIIB) = experiment: Anti-HIV-1 activity in MT-4 cells, MTT method, WT strain IIIB; conditions: Human immunodeficiency virus 1, IIIB, MT4, read-out: EC50 IIIB
HIV-1 Y188L = experiment: microbe, parasite or virus in culture; conditions: for EC50: Human immunodeficiency virus 1, MT4, read-out: EC50 Y188L; for RF Y188L: resistance fold, EC50 (mutant strain)/EC50 (WT strain); for SI Y188L: selectivity index, ratio of CC50/EC50
HIV-1 L100I = experiment: microbe, parasite or virus in culture; conditions: for EC50: Human immunodeficiency virus 1, MT4, read-out: EC50 L100I; for RF L100I: resistance fold, EC50 (mutant strain)/EC50 (WT strain); for SI L100I: selectivity index, ratio of CC50/EC50

SMILES | EC50 (HIV-1 F227L + V106A) [nM] | RF F227L + V106A (HIV-1 F227L + V106A) | SI F227L + V106A (HIV-1 F227L + V106A) | EC50 (HIV-1 K103N) [nM] | RF K103N (HIV-1 K103N) | SI K103N (HIV-1 K103N) | EC50 (HIV-1 Y181C) [nM] | RF Y181C (HIV-1 Y181C) | SI Y181C (HIV-1 Y181C) | EC50 (HIV-1 E138K) [nM] | RF E138K (HIV-1 E138K) | SI E138K (HIV-1 E138K) | EC50 [1] [nM] | RF RES056 [1] | SI RES056 [1] | CC50 at 5 days [2] [nM] | EC50 (HIV-1 WT strain (IIIB)) [nM] | EC50 (HIV-1 Y188L) [nM] | RF Y188L (HIV-1 Y188L) | EC50 (HIV-1 L100I) [nM] | further results
Cc1cc(C#N)cc(C)c1Oc1nc(NC2CCN(c3cccc(C(N)=O)c3)CC2)nc2c1SCCC2 [27b, 3-(4-((4-(4-Cyano-2,6-dimethylphenoxy)-7,8-dihydro-6H-thiopyrano[3,2-d]pyrimidin-2-yl)amino)piperidin-1-yl)benzamide] | 111 ± 11.4 | 29.5 | 54 | 5.46 | 1.5 | 1097 | 7.87 ± 1.84 | 2.1 | 761 | 17.1 ± 4.42 | 4.5 | 350 | 24.5 ± 8.11 | 6.5 | 244 | 5990 ± 2950 | 3.76 ± 2.29 | 7.14 ± 1.5 | 1.9 | 13.3 ± 6.79 | SI Y188L (HIV-1 Y188L): 839; RF L100I (HIV-1 L100I): 3.5; SI L100I (HIV-1 L100I): 450
O=C1Nc2ccc(Cl)cc2[C@@](C#CC2CC2)(C(F)(F)F)O1 [EFV, efavirenz, reference compound] | 77.4 ± 55.9 | – | – | 99.2 ± 56.8 | – | – | 4.94 ± 1.75 | – | – | 4.67 ± 1.38 | – | – | 114 ± 55.6 | – | – | > 6340 | 2.67 ± 1.73 | 93.2 ± 58.9 | – | 57.4 ± 45.9 | –
Cc1cc(C#N)cc(C)c1Oc1nc(Nc2ccc(C#N)cc2)nc2c1SCCC2 [compound 15a, 4-((2-((4-Cyanophenyl)amino)-7,8-dihydro-6H-thiopyrano[3,2-d]pyrimidin-4-yl)oxy)-3,5-dimethylbenzonitrile] | 40.9 | 12.1 | 111 | 6.41 ± 0.99 | 1.9 | 707 | 42.3 ± 4.45 | 12.5 | 107 | 17.4 ± 2.24 | 5.1 | 260 | 85.3 ± 54.3 | 25.2 | 53 | 4530 ± 720 | 3.38 ± 3.17 | 20.7 ± 1.88 | 6.1 | 16.7 ± 4.51 | SI Y188L (HIV-1 Y188L): 219; RF L100I (HIV-1 L100I): 4.9; SI L100I (HIV-1 L100I): 271
